Results taken from the supplement of paper PMC10307832.

Legend:
Experiment in all cases: relative viability (nuclei count vs DMSO), 5 days (fraction); higher = more cells survive
Sorafenib = compound: CNC(=O)c1cc(Oc2ccc(NC(=O)Nc3ccc(Cl)c(C(F)(F)F)c3)cc2)ccn1 [Sorafenib]
Summary of the method: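 Lung cancer cell lines received five library-drug doses (not always all listed) spaced by √10, pinned on vehicle-anchored 1536-well plates after an overnight stay at 37 °C. Five days later, with no medium change, nuclei were Hoechst-stained, imaged at 4× and counted with MetaXpress. Viability is treated-well nuclei relative to vehicle-well nuclei, as a median across plates. Passing plates had control CV below 25% and at least one doubling.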

Sorafenib + Phenformin = compound: CNC(=O)c1cc(Oc2ccc(NC(=O)Nc3ccc(Cl)c(C(F)(F)F)c3)cc2)ccn1 [Sorafenib] + N=C(N)NC(=N)NCCc1ccccc1 [Phenformin] (partner 250 µM)
Summary of the method: (§1)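 Relative viability was taken as the ratio of nuclei in treated wells to nuclei in vehicle wells. Lung cancer cell lines in 1536-well plates received compounds by pin tool one day after seeding, either one drug alone or a fixed anchor-drug dose plus five library-drug doses (not always all listed) in √10 steps. Nuclei were counted on 4× images after 5 days of treatment, and values are medians of duplicate plates.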

Sorafenib + Decitabine = compound: CNC(=O)c1cc(Oc2ccc(NC(=O)Nc3ccc(Cl)c(C(F)(F)F)c3)cc2)ccn1 [Sorafenib] + Nc1ncn([C@H]2C[C@H](O)[C@@H](CO)O2)c(=O)n1 [Decitabine] (partner 2 µM)
Summary of the method: as §1

Sorafenib + OSI-027 = compound: CNC(=O)c1cc(Oc2ccc(NC(=O)Nc3ccc(Cl)c(C(F)(F)F)c3)cc2)ccn1 [Sorafenib] + COc1cccc2cc(-c3nc([C@H]4CC[C@H](C(=O)O)CC4)n4ncnc(N)c34)[nH]c12 [OSI-027] (partner 0.5 µM)
Summary of the method: as §1

Sorafenib + Tozasertib = compound: CNC(=O)c1cc(Oc2ccc(NC(=O)Nc3ccc(Cl)c(C(F)(F)F)c3)cc2)ccn1 [Sorafenib] + Cc1cc(Nc2cc(N3CCN(C)CC3)nc(Sc3ccc(NC(=O)C4CC4)cc3)n2)n[nH]1 [Tozasertib] (partner 0.1 µM)
Summary of the method: as §1

Sorafenib + Dasatinib = compound: CNC(=O)c1cc(Oc2ccc(NC(=O)Nc3ccc(Cl)c(C(F)(F)F)c3)cc2)ccn1 [Sorafenib] + Cc1nc(Nc2ncc(C(=O)Nc3c(C)cccc3Cl)s2)cc(N2CCN(CCO)CC2)n1 [Dasatinib] (partner 0.075 µM)
Summary of the method: as §1

Sorafenib + Olaparib = compound: CNC(=O)c1cc(Oc2ccc(NC(=O)Nc3ccc(Cl)c(C(F)(F)F)c3)cc2)ccn1 [Sorafenib] + O=C(c1cc(Cc2n[nH]c(=O)c3ccccc23)ccc1F)N1CCN(C(=O)C2CC2)CC1 [Olaparib] (partner 8 µM)
Summary of the method: as §1

Sorafenib + Luminespib = compound: CNC(=O)c1cc(Oc2ccc(NC(=O)Nc3ccc(Cl)c(C(F)(F)F)c3)cc2)ccn1 [Sorafenib] + CCNC(=O)c1noc(-c2cc(C(C)C)c(O)cc2O)c1-c1ccc(CN2CCOCC2)cc1 [Luminespib] (partner 0.01 µM)
Summary of the method: as §1

Sorafenib + Foretinib = compound: CNC(=O)c1cc(Oc2ccc(NC(=O)Nc3ccc(Cl)c(C(F)(F)F)c3)cc2)ccn1 [Sorafenib] + COc1cc2c(Oc3ccc(NC(=O)C4(C(=O)Nc5ccc(F)cc5)CC4)cc3F)ccnc2cc1OCCCN1CCOCC1 [Foretinib] (partner 0.25 µM)
Summary of the method: as §1

Sorafenib + Trametinib = compound: CNC(=O)c1cc(Oc2ccc(NC(=O)Nc3ccc(Cl)c(C(F)(F)F)c3)cc2)ccn1 [Sorafenib] + CC(=O)Nc1cccc(-n2c(=O)n(C3CC3)c(=O)c3c(Nc4ccc(I)cc4F)n(C)c(=O)c(C)c32)c1 [Trametinib] (partner 0.02 µM)
Summary of the method: as §1

Sorafenib + AZD7762 = compound: CNC(=O)c1cc(Oc2ccc(NC(=O)Nc3ccc(Cl)c(C(F)(F)F)c3)cc2)ccn1 [Sorafenib] + NC(=O)Nc1cc(-c2cccc(F)c2)sc1C(=O)N[C@H]1CCCNC1 [AZD7762] (partner 0.2 µM)
Summary of the method: as §1

Sorafenib + Vorinostat = compound: CNC(=O)c1cc(Oc2ccc(NC(=O)Nc3ccc(Cl)c(C(F)(F)F)c3)cc2)ccn1 [Sorafenib] + O=C(CCCCCCC(=O)Nc1ccccc1)NO [Vorinostat] (partner 1 µM)
Summary of the method: as §1

Sorafenib + Pemetrexed = compound: CNC(=O)c1cc(Oc2ccc(NC(=O)Nc3ccc(Cl)c(C(F)(F)F)c3)cc2)ccn1 [Sorafenib] + Nc1nc2[nH]cc(CCc3ccc(C(=O)N[C@@H](CCC(=O)O)C(=O)O)cc3)c2c(=O)[nH]1 [Pemetrexed] (partner 0.2 µM)
Summary of the method: as §1

Sorafenib + Palbociclib = compound: CNC(=O)c1cc(Oc2ccc(NC(=O)Nc3ccc(Cl)c(C(F)(F)F)c3)cc2)ccn1 [Sorafenib] + CC(=O)c1c(C)c2cnc(Nc3ccc(N4CCNCC4)cn3)nc2n(C2CCCC2)c1=O [Palbociclib] (partner 0.5 µM)
Summary of the method: as §1

## NCI-H2342
Sorafenib; 0.253 µM
  relative viability: 0.728
Sorafenib; 8 µM
  relative viability: 0.656
Sorafenib + Phenformin; first compound 0.08 µM
  relative viability: 0.67
Sorafenib + Phenformin; first compound 0.253 µM
  relative viability: 0.487
Sorafenib + Phenformin; first compound 2.53 µM
  relative viability: 0.528
Sorafenib + Phenformin; first compound 8 µM
  relative viability: 0.381
Sorafenib + Decitabine; first compound 0.08 µM
  relative viability: 0.778
Sorafenib + Decitabine; first compound 0.253 µM
  relative viability: 0.676
Sorafenib + Decitabine; first compound 2.53 µM
  relative viability: 0.716
Sorafenib + Decitabine; first compound 8 µM
  relative viability: 0.712
Sorafenib + OSI-027; first compound 0.08 µM
  relative viability: 0.676
Sorafenib + OSI-027; first compound 0.253 µM
  relative viability: 0.522
Sorafenib + OSI-027; first compound 2.53 µM
  relative viability: 0.542
Sorafenib + OSI-027; first compound 8 µM
  relative viability: 0.482
Sorafenib + Tozasertib; first compound 0.08 µM
  relative viability: 0.568
Sorafenib + Tozasertib; first compound 0.253 µM
  relative viability: 0.488
Sorafenib + Tozasertib; first compound 2.53 µM
  relative viability: 0.377
Sorafenib + Tozasertib; first compound 8 µM
  relative viability: 0.366
Sorafenib + Dasatinib; first compound 0.08 µM
  relative viability: 0.32
Sorafenib + Dasatinib; first compound 0.253 µM
  relative viability: 0.27
Sorafenib + Dasatinib; first compound 2.53 µM
  relative viability: 0.29
Sorafenib + Dasatinib; first compound 8 µM
  relative viability: 0.28
Sorafenib + Olaparib; first compound 0.08 µM
  relative viability: 0.433
Sorafenib + Olaparib; first compound 0.253 µM
  relative viability: 0.487
Sorafenib + Olaparib; first compound 2.53 µM
  relative viability: 0.351
Sorafenib + Olaparib; first compound 8 µM
  relative viability: 0.388
Sorafenib + Luminespib; first compound 0.08 µM
  relative viability: 0.662
Sorafenib + Luminespib; first compound 0.253 µM
  relative viability: 0.637
Sorafenib + Luminespib; first compound 2.53 µM
  relative viability: 0.597
Sorafenib + Luminespib; first compound 8 µM
  relative viability: 0.582
Sorafenib + Foretinib; first compound 0.08 µM
  relative viability: 1
Sorafenib + Foretinib; first compound 0.253 µM
  relative viability: 1
Sorafenib + Foretinib; first compound 2.53 µM
  relative viability: 0.914
Sorafenib + Foretinib; first compound 8 µM
  relative viability: 0.568
Sorafenib + Trametinib; first compound 0.08 µM
  relative viability: 0.887
Sorafenib + Trametinib; first compound 0.253 µM
  relative viability: 0.749
Sorafenib + Trametinib; first compound 2.53 µM
  relative viability: 0.71
Sorafenib + Trametinib; first compound 8 µM
  relative viability: 0.682
Sorafenib + AZD7762; first compound 0.08 µM
  relative viability: 0.589
Sorafenib + AZD7762; first compound 0.253 µM
  relative viability: 0.409
Sorafenib + AZD7762; first compound 2.53 µM
  relative viability: 0.554
Sorafenib + AZD7762; first compound 8 µM
  relative viability: 0.353
Sorafenib + Vorinostat; first compound 0.08 µM
  relative viability: 0.806
Sorafenib + Vorinostat; first compound 0.253 µM
  relative viability: 0.628
Sorafenib + Vorinostat; first compound 2.53 µM
  relative viability: 0.689
Sorafenib + Vorinostat; first compound 8 µM
  relative viability: 0.645
Sorafenib + Pemetrexed; first compound 0.253 µM
  relative viability: 0.729
Sorafenib + Pemetrexed; first compound 2.53 µM
  relative viability: 0.78
Sorafenib + Pemetrexed; first compound 8 µM
  relative viability: 0.532
Sorafenib + Palbociclib; first compound 0.08 µM
  relative viability: 0.53
Sorafenib + Palbociclib; first compound 0.253 µM
  relative viability: 0.523
Sorafenib + Palbociclib; first compound 2.53 µM
  relative viability: 0.556
Sorafenib + Palbociclib; first compound 8 µM
  relative viability: 0.533
